Active and inactive are the calls of the source.
Experiments:
[1] = Fluorescence-based cell-based high throughput dose response assay for inhibitors of the interaction of nucleotide-binding oligomerization domain containing 2 (NOD2) and the receptor-interacting serine-threonine kinase 2 (RIPK2).; type: functional; settings: Homo sapiens
Hexokinase = molecular target: T1, Hexokinase (Trypanosoma brucei, UniProt Q38C41); assay: Confirmation assay for inhibitors of Trypanosoma brucei hexokinase 1-Analogue-first series. [Related pubchem assays (depositor defined):AID1430, AID1632, AID2516, AID2560, AID2579, AID2600, AID449725, AID492951]; type: functional
T1 sequence (Q38C41 whole entry): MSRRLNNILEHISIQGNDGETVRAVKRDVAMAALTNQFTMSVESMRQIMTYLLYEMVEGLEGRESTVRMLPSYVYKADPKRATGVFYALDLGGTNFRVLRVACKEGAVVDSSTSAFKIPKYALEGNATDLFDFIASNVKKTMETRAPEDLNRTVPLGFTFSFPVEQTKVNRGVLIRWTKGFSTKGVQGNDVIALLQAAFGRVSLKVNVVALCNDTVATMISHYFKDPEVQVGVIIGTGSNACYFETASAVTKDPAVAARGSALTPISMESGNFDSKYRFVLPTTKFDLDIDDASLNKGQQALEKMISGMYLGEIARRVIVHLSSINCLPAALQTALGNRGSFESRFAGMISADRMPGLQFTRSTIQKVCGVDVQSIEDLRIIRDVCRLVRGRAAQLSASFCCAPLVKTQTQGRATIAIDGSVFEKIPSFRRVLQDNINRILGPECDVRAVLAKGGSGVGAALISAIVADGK

[2] = molecular target: Glucose-6-phosphate 1-dehydrogenase (Homo sapiens, UniProt P11413); assay: human G6PD enzyme inhibitors, dose response, selectivity assay for P. falciparum G6PD inhibitor project, biochemical, fluorescence (AID 504792); type: functional
Glucose-6-phosphate 1-dehydrogenase, sequence (P11413 whole entry): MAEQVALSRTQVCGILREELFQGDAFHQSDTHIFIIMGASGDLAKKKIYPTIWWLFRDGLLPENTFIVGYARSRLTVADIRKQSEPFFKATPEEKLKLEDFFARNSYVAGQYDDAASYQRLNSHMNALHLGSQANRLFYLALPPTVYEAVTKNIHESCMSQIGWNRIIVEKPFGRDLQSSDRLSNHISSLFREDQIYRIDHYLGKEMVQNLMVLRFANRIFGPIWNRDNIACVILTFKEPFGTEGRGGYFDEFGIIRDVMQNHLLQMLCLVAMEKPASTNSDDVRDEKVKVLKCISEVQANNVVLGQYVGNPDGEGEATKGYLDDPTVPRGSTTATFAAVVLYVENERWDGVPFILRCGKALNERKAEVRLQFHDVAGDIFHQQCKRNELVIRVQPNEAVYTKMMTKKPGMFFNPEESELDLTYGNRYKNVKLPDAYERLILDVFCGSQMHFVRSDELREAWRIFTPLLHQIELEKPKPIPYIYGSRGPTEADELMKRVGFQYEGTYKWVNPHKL

[3] = molecular target: T2, Small ubiquitin-related modifier 1 (Homo sapiens, UniProt P63165); assay: inhibitors of SUMO1 partner interactions, dose response, biochemical, FRET (AID 624383); type: functional; settings: read-out: IC50_Mean
T2 sequence (P63165 whole entry): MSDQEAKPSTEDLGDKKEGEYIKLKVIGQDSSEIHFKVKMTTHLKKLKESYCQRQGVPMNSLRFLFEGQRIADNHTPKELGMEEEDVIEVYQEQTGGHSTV

[4] = molecular target: T3, Rac GTPase-activating protein 1 (Homo sapiens, UniProt Q9H0H5); assay: MgcRacGAP GTPase-activating activity inhibitors, confirmation, biochemical, ADP Hunter fluorescence, primary and confirmatory (AID 624330); type: functional
T3 sequence (Q9H0H5 whole entry): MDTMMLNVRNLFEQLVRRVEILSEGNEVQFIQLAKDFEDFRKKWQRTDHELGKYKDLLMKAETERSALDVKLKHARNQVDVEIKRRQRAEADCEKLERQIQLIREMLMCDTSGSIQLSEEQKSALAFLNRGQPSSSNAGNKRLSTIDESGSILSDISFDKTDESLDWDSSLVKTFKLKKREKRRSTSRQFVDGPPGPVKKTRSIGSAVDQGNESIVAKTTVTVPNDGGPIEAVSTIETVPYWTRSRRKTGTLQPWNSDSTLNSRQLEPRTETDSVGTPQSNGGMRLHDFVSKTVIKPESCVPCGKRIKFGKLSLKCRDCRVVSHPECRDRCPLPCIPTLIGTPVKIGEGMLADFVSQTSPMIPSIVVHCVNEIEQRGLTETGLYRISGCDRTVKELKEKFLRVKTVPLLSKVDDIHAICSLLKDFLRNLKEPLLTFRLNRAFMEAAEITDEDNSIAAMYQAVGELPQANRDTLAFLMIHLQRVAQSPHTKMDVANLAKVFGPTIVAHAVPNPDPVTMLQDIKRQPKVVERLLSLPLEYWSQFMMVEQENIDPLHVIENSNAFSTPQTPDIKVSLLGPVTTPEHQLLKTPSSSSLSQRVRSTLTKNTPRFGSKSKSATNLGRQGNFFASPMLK

[5] = molecular target: T2, Small ubiquitin-related modifier 1; assay: inhibitors of SUMO1 peptide binding, dose response, biochemical, fluorescence polarization, uHTS hits (AID 624382); type: functional; settings: read-out: IC50_Mean
Genome polyprotein = Genome polyprotein (dengue virus type 2, UniProt P29990); assay: Dengue-2 NS5 methyltransferase inhibitors, primary screen, biochemical, confirmation dose response (AID 588689); type: functional
Genome polyprotein, sequence (P29990 2492-3391 limits assumed): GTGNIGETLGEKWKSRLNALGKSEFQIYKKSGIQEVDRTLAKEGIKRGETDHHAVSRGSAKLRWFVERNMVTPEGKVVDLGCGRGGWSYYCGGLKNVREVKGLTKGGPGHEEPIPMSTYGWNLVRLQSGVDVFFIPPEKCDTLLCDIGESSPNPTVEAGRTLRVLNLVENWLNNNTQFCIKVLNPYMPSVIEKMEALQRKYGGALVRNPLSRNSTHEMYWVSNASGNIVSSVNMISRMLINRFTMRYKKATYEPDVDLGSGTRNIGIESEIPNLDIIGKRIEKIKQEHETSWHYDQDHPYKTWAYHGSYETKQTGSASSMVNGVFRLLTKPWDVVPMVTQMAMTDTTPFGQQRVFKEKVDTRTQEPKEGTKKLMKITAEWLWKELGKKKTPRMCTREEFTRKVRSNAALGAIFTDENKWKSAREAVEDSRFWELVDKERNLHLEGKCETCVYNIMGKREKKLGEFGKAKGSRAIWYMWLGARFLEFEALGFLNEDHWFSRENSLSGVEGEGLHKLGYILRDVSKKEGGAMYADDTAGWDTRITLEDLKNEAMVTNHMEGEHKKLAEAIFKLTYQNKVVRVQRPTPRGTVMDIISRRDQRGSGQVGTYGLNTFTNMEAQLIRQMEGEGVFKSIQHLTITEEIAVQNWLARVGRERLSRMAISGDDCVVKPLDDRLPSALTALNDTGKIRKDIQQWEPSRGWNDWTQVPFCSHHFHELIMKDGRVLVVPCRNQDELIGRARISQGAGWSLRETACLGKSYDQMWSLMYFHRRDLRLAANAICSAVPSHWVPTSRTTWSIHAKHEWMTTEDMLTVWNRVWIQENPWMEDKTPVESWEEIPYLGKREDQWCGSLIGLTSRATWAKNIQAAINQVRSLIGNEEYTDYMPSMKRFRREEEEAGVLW

Steroidogenic factor 1 = Steroidogenic factor 1 (Homo sapiens, UniProt Q13285); assay: Counterscreen for inverse agonists of the liver receptor homolog-1 (LRH-1; NR5A2): Luminescence-based cell-based high throughput dose response assay to identify inverse agonists of the Steroidogenic Factor 1 Nuclear Receptor (SF1; NR5A1).; type: functional
Steroidogenic factor 1, sequence (Q13285 whole entry): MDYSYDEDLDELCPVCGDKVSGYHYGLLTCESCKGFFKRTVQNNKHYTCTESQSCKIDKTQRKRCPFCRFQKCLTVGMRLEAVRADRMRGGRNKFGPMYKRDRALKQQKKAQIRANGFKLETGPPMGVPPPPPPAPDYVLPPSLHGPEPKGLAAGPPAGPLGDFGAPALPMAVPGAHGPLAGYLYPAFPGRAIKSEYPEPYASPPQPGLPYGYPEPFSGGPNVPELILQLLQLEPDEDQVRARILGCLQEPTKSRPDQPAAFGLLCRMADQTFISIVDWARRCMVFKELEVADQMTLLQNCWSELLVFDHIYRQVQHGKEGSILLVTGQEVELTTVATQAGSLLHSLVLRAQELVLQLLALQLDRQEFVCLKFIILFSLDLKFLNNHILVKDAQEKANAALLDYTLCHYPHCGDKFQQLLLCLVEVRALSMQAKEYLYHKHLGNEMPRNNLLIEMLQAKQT

[6] = StAR promoter reporter inhibition counter-screen, dose response, counter-screen for LRH-1 inverse agonist project, cell-based, luminescence, luciferase reporter (AID 651969); type: functional
[7] = molecular target: Nuclear receptor subfamily 5 group A member 2 (Homo sapiens, UniProt O00482); type: functional, cell-based;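 also: HEK293T cells transfected with LRH-1 and a StAR promoter luciferase reporter; potency for inhibitors that lower LRH-1 driven reporter light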
Nuclear receptor subfamily 5 group A member 2, sequence (O00482 whole entry): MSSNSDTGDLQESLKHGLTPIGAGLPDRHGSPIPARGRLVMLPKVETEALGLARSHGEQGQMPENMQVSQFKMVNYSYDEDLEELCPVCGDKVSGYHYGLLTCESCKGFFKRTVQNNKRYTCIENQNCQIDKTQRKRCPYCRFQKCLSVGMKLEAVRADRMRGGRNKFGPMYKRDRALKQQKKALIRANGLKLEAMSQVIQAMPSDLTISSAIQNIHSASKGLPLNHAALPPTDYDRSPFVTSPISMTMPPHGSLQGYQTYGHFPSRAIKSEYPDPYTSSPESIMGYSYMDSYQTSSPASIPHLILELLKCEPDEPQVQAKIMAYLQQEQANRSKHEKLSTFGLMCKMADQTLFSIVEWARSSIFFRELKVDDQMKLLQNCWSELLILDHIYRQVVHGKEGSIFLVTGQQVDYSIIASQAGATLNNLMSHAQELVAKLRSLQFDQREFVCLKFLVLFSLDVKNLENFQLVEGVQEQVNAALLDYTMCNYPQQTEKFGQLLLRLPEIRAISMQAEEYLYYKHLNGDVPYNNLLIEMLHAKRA

Vero = assay: Vero cell toxicity, dose response, cytotoxicity control, plate reader, cherry-pick samples (AID 687020); type: functional, cell-based; settings: Chlorocebus sabaeus
[8] = AlphaScreen signal interference compounds, dose response, artefact control for ARNT-TACC3 interaction inhibitor project, biochemical, luminescence, cherry-pick (AID 651705); type: functional;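 also: AlphaScreen bead proximity signal that flags compounds interfering with the detection technology; potency reflects signal decrease which marks the compound as an assay artifact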
[9] = molecular target: Aryl hydrocarbon receptor (Homo sapiens, UniProt P35869); settings: Potency;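 also: confirmatory quantitative high-throughput screen measuring activation of the AhR signaling pathway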
Aryl hydrocarbon receptor, sequence (P35869 whole entry): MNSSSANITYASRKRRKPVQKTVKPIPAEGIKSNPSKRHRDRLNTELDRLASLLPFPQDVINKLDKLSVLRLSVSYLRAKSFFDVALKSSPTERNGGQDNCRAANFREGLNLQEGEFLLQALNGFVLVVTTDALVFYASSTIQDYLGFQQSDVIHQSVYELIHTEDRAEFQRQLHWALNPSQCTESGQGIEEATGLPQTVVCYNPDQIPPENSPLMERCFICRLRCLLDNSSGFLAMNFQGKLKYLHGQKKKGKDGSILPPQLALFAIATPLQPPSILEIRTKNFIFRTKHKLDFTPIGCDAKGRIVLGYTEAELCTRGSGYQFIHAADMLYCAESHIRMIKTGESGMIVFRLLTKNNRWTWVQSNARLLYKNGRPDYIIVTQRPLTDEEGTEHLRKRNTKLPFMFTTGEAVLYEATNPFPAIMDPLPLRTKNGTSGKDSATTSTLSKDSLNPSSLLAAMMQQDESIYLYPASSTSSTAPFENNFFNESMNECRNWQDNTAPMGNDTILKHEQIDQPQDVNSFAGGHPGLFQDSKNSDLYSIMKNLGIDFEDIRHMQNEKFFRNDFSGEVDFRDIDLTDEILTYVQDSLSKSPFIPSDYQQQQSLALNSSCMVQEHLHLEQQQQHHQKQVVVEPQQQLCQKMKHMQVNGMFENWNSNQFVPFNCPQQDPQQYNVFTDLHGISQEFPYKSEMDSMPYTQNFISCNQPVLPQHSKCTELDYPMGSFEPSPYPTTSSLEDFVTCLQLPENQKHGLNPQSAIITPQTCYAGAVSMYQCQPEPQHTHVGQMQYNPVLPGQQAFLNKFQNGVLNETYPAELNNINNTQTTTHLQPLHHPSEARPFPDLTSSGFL

[10] = molecular target: Dual specificity protein phosphatase 3 (Homo sapiens, UniProt P51452); assay: VHR phosphatase inhibition, dose response, selectivity assay for STEP inhibitor project, biochemical (AID 602374); type: functional; settings: read-out: IC50_Mean
Dual specificity protein phosphatase 3, sequence (P51452 whole entry): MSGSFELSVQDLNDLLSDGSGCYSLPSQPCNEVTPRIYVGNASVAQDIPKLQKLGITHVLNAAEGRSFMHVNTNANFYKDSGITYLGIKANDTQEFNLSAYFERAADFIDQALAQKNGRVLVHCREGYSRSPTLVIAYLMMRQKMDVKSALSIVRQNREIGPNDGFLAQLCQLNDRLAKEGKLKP

[11] = molecular target: Tyrosine-protein phosphatase non-receptor type 5 (Homo sapiens, UniProt P54829); assay: STEP phosphatase inhibitors, confirmation, biochemical, fluorescence intensity, uHTS hits (AID 602372); type: functional; settings: read-out: IC50_Mean
[12] = molecular target: Tyrosine-protein phosphatase non-receptor type 11 (Homo sapiens, UniProt Q06124); assay: SHP2 phosphatase inhibition, dose response, selectivity assay for STEP inhibitor project, biochemical (AID 602367); type: functional; settings: read-out: IC50_Mean
[13] = Counterscreen for inhibitors of Trypanosoma brucei methionyl tRNA synthetase (MetRS): Luminescence-based cell-based high throughput dose response assay to identify compounds that are cytotoxic to Jurkat human T lymphocyte cells.; type: functional
[14] = molecular target: T4, Methionyl-tRNA synthetase, putative (Trypanosoma brucei brucei, UniProt Q38C91); type: functional, Trypanosoma brucei brucei strain 927/4 GUTat10.1
T4 sequence (Q38C91 whole entry): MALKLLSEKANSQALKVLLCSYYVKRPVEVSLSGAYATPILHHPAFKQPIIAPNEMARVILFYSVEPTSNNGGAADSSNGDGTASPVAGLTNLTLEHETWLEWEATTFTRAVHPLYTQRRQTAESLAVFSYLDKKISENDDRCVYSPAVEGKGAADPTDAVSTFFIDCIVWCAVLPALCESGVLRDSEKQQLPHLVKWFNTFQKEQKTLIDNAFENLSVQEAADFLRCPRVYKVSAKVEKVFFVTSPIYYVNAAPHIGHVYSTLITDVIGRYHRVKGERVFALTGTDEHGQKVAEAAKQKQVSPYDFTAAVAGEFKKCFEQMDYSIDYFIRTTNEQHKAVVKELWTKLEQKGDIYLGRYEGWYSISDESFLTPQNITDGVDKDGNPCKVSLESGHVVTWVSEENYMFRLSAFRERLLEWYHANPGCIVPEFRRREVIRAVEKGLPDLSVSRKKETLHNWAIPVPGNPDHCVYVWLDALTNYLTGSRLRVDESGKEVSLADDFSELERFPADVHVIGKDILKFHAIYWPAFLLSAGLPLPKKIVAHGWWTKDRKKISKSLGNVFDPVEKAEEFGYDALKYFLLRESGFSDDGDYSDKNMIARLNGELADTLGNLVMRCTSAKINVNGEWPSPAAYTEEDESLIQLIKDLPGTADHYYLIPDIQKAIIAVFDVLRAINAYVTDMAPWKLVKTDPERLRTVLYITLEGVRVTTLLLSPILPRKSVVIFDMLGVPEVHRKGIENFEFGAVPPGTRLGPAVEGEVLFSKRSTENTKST

[15] = inhibitors of intracellular T. cruzi replication, confirmation, NIH3T3 host cells, beta-gal luminescence (AID 2044); type: functional, cell-based;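 also: intracellular parasites grown in NIH/3T3 mouse fibroblasts as host cells; luminescent beta-galactosidase reporter signal from transgenic T. cruzi replicating inside host cells; inhibitors lower the luminescence signal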
[16] = cytotoxicity toward NIH3T3 fibroblasts, dose response, counter-screen, cell-based, ATP luminescence, mouse fibroblasts (AID 2010); type: functional;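 also: cells exposed to compound for about 90 hours before reading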
[17] = molecular target: T4, Methionyl-tRNA synthetase, putative; type: functional, Trypanosoma brucei brucei strain 927/4 GUTat10.1; remark: listed apart in the source
[18] = Luminescence Cell-Based Dose Retest to Confirm Inhibitors of Cancer Stem Cells. [Related pubchem assays (depositor defined):AID2717, AID2721]; type: functional; settings: Homo sapiens
[19] = cytotoxicity in HMLE control line with eGFP shRNA, dose response, counter-screen for HMLE_sh_ECad selective toxicity project, cell-based, HMLE_sh_eGFP, luminescence (AID 463074); type: functional, Homo sapiens;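 also: HMLE human mammary epithelial cells expressing control shRNA against eGFP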
Melanocortin receptor 4 = Melanocortin receptor 4 (Homo sapiens, UniProt P32245); type: functional, cell-based;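 also: Cell-based assay with luminescence read-out, confirmatory dose-response testing for agonist activity of biased ligands at MC4R; human U2OS cells with tagged receptor and beta-arrestin; potency of agonists that increase receptor coupling to beta-arrestin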
Melanocortin receptor 4, sequence (P32245 whole entry, the tested form may be a part): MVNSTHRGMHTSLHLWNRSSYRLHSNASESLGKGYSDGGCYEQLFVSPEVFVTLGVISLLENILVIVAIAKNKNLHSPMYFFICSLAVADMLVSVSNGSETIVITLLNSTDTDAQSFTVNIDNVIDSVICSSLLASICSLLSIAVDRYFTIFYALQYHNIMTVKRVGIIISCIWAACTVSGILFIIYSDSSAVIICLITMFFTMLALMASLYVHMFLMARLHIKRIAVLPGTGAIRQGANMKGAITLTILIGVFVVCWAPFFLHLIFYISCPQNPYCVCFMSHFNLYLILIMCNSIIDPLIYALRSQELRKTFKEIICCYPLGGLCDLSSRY

[20] = molecular target: Photoreceptor-specific nuclear receptor (Homo sapiens, UniProt Q9Y5X4); type: functional, cell-based;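 also: CHO-S cells with Gal4-NCOR and VP16-NR2E3 two-hybrid luciferase reporter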
[21] = molecular target: T5, Low molecular weight phosphotyrosine protein phosphatase (Homo sapiens, UniProt P24666); type: functional; settings: read-out: IC50_Mean
T5 sequence (P24666 whole entry): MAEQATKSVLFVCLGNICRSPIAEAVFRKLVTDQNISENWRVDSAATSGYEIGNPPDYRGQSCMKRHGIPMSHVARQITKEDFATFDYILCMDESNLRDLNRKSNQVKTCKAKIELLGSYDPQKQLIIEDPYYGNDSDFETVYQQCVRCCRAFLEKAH

[22] = molecular target: T5, Low molecular weight phosphotyrosine protein phosphatase; type: functional; settings: read-out: IC50_Mean; remark: listed apart in the source
[23] = molecular target: Arf-GAP with SH3 domain, ANK repeat and PH domain-containing protein 1 (Homo sapiens, UniProt Q9ULH1); type: functional;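 also: biochemical fluorescence polarization dose–response screen measuring inhibition of ASAP1; ASAP1 GAP domain stimulating GTP hydrolysis by truncated human ARF1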
Arf-GAP with SH3 domain, ANK repeat and PH domain-containing protein 1, sequence (Q9ULH1 whole entry, the tested form may be a part): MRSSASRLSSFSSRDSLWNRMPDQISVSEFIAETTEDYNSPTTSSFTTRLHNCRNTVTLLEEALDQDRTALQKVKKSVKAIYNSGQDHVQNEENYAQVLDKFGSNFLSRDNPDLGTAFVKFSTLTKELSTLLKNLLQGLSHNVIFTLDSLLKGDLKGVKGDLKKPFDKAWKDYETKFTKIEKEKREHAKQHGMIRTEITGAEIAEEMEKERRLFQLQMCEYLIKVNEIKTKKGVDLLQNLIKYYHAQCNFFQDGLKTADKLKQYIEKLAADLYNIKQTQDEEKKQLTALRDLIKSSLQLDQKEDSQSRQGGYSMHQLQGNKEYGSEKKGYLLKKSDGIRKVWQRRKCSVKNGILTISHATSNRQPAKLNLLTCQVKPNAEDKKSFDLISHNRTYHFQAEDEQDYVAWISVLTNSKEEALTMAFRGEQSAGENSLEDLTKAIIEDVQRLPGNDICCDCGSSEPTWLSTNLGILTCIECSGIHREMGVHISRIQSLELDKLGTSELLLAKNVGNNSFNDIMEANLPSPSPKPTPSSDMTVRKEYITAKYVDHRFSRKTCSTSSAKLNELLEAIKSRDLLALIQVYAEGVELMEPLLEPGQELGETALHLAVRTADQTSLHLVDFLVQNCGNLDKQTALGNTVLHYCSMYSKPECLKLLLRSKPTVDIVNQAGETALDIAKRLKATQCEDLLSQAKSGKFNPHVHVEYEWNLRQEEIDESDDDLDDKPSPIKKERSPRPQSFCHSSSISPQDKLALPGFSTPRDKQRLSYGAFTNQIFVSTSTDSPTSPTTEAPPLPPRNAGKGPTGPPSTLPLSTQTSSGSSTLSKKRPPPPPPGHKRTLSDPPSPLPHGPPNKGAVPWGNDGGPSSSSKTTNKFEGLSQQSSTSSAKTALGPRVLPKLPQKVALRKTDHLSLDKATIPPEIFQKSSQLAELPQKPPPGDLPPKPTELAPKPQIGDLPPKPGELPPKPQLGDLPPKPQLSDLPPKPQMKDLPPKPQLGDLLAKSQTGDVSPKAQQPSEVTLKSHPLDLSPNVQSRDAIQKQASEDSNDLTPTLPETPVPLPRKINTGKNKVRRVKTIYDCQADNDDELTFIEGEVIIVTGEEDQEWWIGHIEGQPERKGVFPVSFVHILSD

O=C(Cn1sc2ccccc2c1=O)Nc1ccc(Cl)cc1
IC50 [1]: 7.04 µM (active)
IC50 (Hexokinase): 12.9 µM (active)
IC50 [2]: 12.5 µM (active)

COc1ccccc1Nc1ccc2c(O)cc(S(=O)(=O)O)cc2c1
IC50 [3]: 3.41 µM (active)
IC50 [4]: 90.4 µM (active)
IC50 [5]: > 66.6 µM (inactive)
IC50 (Genome polyprotein): 60.5 µM (active)

NC(=O)C1CCN(C(=O)COc2ccc3c4c(c(=O)oc3c2)CCCC4)CC1
IC50 (Steroidogenic factor 1): 4.4 µM (active)
IC50 [6]: 35.9 µM (inactive)
IC50 [7]: 3.98 µM (active)

O=C(c1cccc(Cl)c1)N1CCC2(CC1)NCCc1[nH]cnc12
AC50 (Vero): 34 µM (active)

COc1ccc(NC(=O)CSc2c(C)nn(-c3nnc(C)c(O)n3)c2C)cc1
AC50 [8]: 133 µM (active)

Cc1nn(CC(=O)Nc2ccc3c(c2)OCCO3)c(C)c1[N+](=O)[O-]
IC50 (Steroidogenic factor 1): 3.1 µM (active)
IC50 [6]: 35.9 µM (inactive)
IC50 [7]: 14.3 µM (inactive)

CCNP(=S)(OC)O/C(C)=C/C(=O)OC(C)C (configuration not stated) [PROPETAMPHOS]
AC50 [9]: 50.1 µM (inconclusive)

Cc1ccccc1N1CCN(C(=S)c2ccc(-c3cccc([N+](=O)[O-])c3)o2)CC1
IC50 [10]: 4.61 µM (active)
IC50 [11]: 62.2 µM (inactive)
IC50 [12]: 11.3 µM (active)

OC(COc1ccc2cc(Br)ccc2c1)Cn1ccnc1 (configuration not stated)
IC50 [13]: 83.3 µM (inactive)
EC50 (cells): 0.126 µM (active)
IC50 [14]: 94.1 µM (inactive)
EC50 [15]: < 0.1 µM (active)
EC50 [16]: > 60 µM (not active)
IC50 [17]: 28.2 µM (inactive)

Cc1nnc(O)nc1N/N=C/c1ccco1
AC50 [8]: 119 µM (active)

COc1cc(/C=C2\Oc3ccc(C#Cc4ccc(O)cc4)cc3C2=O)cc(OC)c1
AC50 [18]: 1.41 µM (active)
AC50 [19]: 29.7 µM (active)
EC50 (Melanocortin receptor 4): > 89.2 µM (inactive)

COc1ccc([C@@H]2C[C@H]3[C@@H](CN2S(=O)(=O)c2ccccc2)C(=O)C[C@@H](c2cccc(Cl)c2)N3S(=O)(=O)c2ccc(C)cc2)cc1
IC50 [20]: 39.8 µM (inactive)

Cc1cc(C)c2c(N)c(C(=O)c3ccc(Cl)c(Cl)c3)sc2n1
IC50 [21]: 4.5 µM (active)
EC50 [15]: 0.166 µM (active)
EC50 [16]: > 60 µM (not active)
IC50 [22]: 14.2 µM (active)

COC(=O)c1cccc(Nc2nc(-c3ccncc3)nc3ccccc23)c1
IC50 [3]: 4.11 µM (active)
IC50 [23]: 10.5 µM (inactive)
IC50 [5]: > 66.6 µM (inactive)
